The values that follow come from PMC10673058, “In Silico and In Vitro Search for Dual Inhibitors of the Trypanosoma brucei and Leishmania major Pteridine Reductase 1 and Dihydrofolate Reductase” (Molecules, 2023).

The EC50 is the concentration at which the effect is half-maximal. The term IC50 denotes the concentration that inhibits the measured activity by half. The term inhibition denotes the drop in the measured response relative to a control, in per cent.

The structures appear in SMILES notation. Read-outs that look alike come from different tables or passages of the source. Where only a bound is given, the exact number is not on record here.

For one assay, the target named is T1, LmDHFR (Leishmania major, UniProt P07382).
T1 construct: The DNA fragment encoding LmDHFR was amplified by Phusion DNA polymerase; His6 (N); made in house; host or cells: E. coli BL21(DE3), vector pET 11D::LmDHFRHis
T1 sequence (P07382 26-229 limits assumed): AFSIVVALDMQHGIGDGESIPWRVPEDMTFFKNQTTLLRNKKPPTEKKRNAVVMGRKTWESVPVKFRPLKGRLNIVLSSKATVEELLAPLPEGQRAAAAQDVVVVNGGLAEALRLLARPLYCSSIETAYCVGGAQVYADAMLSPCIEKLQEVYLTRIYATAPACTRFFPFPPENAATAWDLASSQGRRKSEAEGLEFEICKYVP
Description: Spectrophotometric enzyme inhibition assay, recombinant LmDHFR. It is filed as biochemical. As for the experimental part:
(§1) Based on the in vitro assays against TbPTR1 and LmPTR1 performed in the previous works of our group, as well as the in silico results obtained from the current study, a total of 47 natural products were tested against the target enzymes. […] The concentration-effect curves for the IC50 and EC50 values that were obtained in the present study are depicted in Supplementary Materials Figures S21–S42.
The TbDHFR concentration was measured to be 0.04 mg/mL and a specific activity of 38.1 U/mg was calculated. The concentration of LmDHFR was 0.05 mg/mL with a specific activity of 56.2 U/mg. All measurements were carried out using the saturating concentrations for dihydrofolate (50 μM) and NADPH (150 μM) in Buffer C (50 mM Tris/HCl (pH 7.6), 250 mM NaCl, 10 mM BME). The saturating conditions for TbDHFR and LmDHFR were determined using the diagrams depicted in Figures S17 and S19 in the Supplementary Materials.
(§2) The inhibitory effect of the selected natural products was investigated by testing the DMSO solution of each compound at a constant concentration of 100 μM for TbPTR1 and 50 μM for LmPTR1, TbDHFR, and LmDHFR, as well as hDHFR. The concentrations of the cofactor and substrates were set at the previously determined saturating conditions (Section 4.2.5). Each test compound was incubated for 20 min with the respective enzyme and NADPH to ensure a sufficient interaction time before the reaction was induced by the addition of the substrate. The enzymatic activity was determined in duplicates and correlated with a reference that contained just DMSO, instead of an inhibitor. The enzymatic activity of the reference was normalized to 100%.
(§3) The half-maximal inhibitory concentration (IC50) of the natural products was determined in triplicate, using at least five different inhibitor concentrations against a reference containing no inhibitor. The enzymatic activity was documented and analyzed and the IC50 value was determined by nonlinear regression using GraphPad Prism 9 (GraphPad Software Inc., La Jolla, CA, USA).

For assay [1], the target named is T2, TbPTR1 (Trypanosoma brucei brucei, UniProt O76290).
T2 construct: His6 (N); made in house; host or cells: E. coli BL21 (DE3), vector pET 15b::TbPTR1His (strain from the group of M. Paola Costi, Modena)
T2 sequence (O76290 1-268): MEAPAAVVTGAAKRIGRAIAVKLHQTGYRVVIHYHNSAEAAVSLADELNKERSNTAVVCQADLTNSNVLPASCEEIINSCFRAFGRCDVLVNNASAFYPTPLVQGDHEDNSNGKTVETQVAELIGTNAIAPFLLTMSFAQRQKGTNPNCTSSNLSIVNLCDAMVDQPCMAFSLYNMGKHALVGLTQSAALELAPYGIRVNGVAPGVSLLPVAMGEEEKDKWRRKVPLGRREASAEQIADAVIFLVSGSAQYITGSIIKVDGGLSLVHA
Nature of the assay: Spectrophotometric enzyme inhibition assay, recombinant TbPTR1. It is filed as biochemical. To be noted: read-out: IC50 TbPTR1. As for the experimental part:
as §1
(§4) The used TbPTR1 concentration was 3.23 mg/mL, with a specific activity of 0.03 U/mg. The measurements were carried out using the enzyme’s individual saturating concentrations for folic acid (8 μM) and NADPH (150 μM) in Buffer A (50 mM Tris/HCl (pH 7.6), 250 mM NaCl). For LmPTR1, the protein concentration was 5.02 mg/mL and the specific activity was calculated to be 0.29 U/mg. Buffer B (50 mM NaH2PO4 (pH 6.0), 100 mM NaCl) was used for all LmPTR1 measurements and the saturating concentrations amounted to 50 μM of folic acid and 200 μM of NADPH. The saturating conditions of the PTR1 enzymes were determined using the diagrams depicted in Figures S16 and S18 in the Supplementary Materials.
as §2, §3

The subject of assay [2] is T. brucei. On the set-up: method as in PMID 27077842. Particulars: read-out: IC50 antitrypanosomal activity in T. brucei cell assays; cited from earlier work.
For another assay, the target named is T3, hDHFR (Homo sapiens, UniProt P00374).
T3 construct: His; host or cells: E. coli BL21 (DE3), vector pET 15b::hDHFRHis
T3 sequence (P00374 1-187): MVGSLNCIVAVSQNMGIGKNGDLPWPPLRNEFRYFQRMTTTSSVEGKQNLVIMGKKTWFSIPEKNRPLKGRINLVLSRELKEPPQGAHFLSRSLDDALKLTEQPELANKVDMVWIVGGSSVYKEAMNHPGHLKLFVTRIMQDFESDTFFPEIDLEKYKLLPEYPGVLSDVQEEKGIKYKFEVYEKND
Nature of the assay: Spectrophotometric enzyme inhibition assay, recombinant hDHFR (selectivity). It is filed as biochemical. To be noted: for inhibition at 50 µM: set compound concentration of 50 μM, read-out: relative inhibition of hDHFR. As for the experimental part: For 15 compounds, there was enough substance available to be tested in selectivity studies against hDHFR.
The used hDHFR concentration was 0.64 mg/mL, with a specific activity of 0.62 U/mg. All measurements were carried out using the saturating concentrations for dihydrofolate (100 μM) and NADPH (50 μM) in Buffer C (50 mM Tris/HCl (pH 7.6), 250 mM NaCl, 10 mM BME). The saturating conditions for hDHFR were determined using the diagrams depicted in Figure S20 in the Supplementary Materials.
as §2, §3

The target in another assay is T4, TbDHFR (Trypanosoma brucei brucei, UniProt Q27783).
T4 construct: pET 11D::TbDHFRHis vector design for the recombinant overexpression of TbDHFR in E. coli; His; made in house; host or cells: E. coli BL21(DE3), vector pET 11D::TbDHFRHis
T4 sequence (Q27783 28-238 limits assumed): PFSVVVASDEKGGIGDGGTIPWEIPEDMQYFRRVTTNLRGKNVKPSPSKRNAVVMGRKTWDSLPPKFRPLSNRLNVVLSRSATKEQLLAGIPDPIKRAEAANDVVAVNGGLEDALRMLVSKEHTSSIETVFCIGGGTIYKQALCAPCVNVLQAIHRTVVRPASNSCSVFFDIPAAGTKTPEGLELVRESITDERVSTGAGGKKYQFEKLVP
Nature of the assay: Spectrophotometric enzyme inhibition assay, recombinant TbDHFR. It is filed as biochemical. As for the experimental part: Based on the in vitro assays against TbPTR1 and LmPTR1 performed in the previous works of our group, as well as the in silico results obtained from the current study, a total of 47 natural products were tested against the target enzymes.
The saturating conditions for TbDHFR and LmDHFR were determined using the diagrams depicted in Figures S17 and S19 in the Supplementary Materials.
as §2, §3

In a further assay the target is T5, LmPTR1 (Leishmania major, UniProt Q01782).
T5 construct: His6 (N); made in house; host or cells: E. coli BL21 (DE3), vector pET 15b::LmPTR1His (strain from the group of M. Paola Costi, Modena)
T5 sequence (Q01782 1-288): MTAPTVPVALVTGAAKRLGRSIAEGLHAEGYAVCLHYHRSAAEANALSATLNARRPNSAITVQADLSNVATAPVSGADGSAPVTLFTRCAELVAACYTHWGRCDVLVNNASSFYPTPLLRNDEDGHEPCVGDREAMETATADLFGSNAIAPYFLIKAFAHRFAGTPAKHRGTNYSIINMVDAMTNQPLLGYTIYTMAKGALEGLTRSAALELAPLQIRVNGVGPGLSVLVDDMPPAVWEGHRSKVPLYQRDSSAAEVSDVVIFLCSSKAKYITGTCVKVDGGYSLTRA
Nature of the assay: Spectrophotometric enzyme inhibition assay, recombinant LmPTR1. It is filed as biochemical. To be noted: read-out: IC50 LmPTR1. As for the experimental part: as §1, §4, §2, §3

The target in assay [3] is T2, TbPTR1. Description: Dilution assay for reversible/irreversible inhibition of TbPTR1. Type of assay: biochemical. To be noted: inhibitor concentration near IC50. From the text:
The catalytic center of TbPTR1 contains a cysteine residue (TbCys168) in close proximity to the substrate/inhibitor binding site. In our previous publication, we mentioned the possibility that Sesquiterpene Lactones 1 and 2 might interact as Michael acceptors with TbCys168 by covalent bond formation with its thiol group. Therefore, we have now subjected a selection of natural product inhibitors containing Michael acceptors (1, 2, 5, 17) to initial testing for irreversible inhibition, according to the dilution method described by Bisswanger (see Section 4.2.9).
In this method, the enzyme activity of the respective enzyme-inhibitor mixture is measured before and after a defined dilution (in this study, 1:2). In the absence of an inhibitor, dilution decreases the enzyme activity proportionally to the dilution factor. […] A reversible inhibitor, on the other hand, will dissociate upon dilution, resulting in a weaker decrease in activity than what corresponds to the dilution effect. In the presence of Inhibitors 1 and 2, the decrease in TbPTR1 activity upon the 1:2 dilution was almost proportional to the dilution factor, i.e., only 9.5% and 6.8% activity, respectively, were recovered compared to the reference. This would indeed support an irreversible mechanism of inhibition. […] However, further investigations on these compounds’ mechanisms of inhibition are under way.
To assign an either reversible or irreversible inhibition mechanism to selected compounds, the enzymatic activity of an enzyme-inhibitor mixture was determined before and after a defined dilution, using the reaction conditions described in Section 4.2.5 [16].
Two equivalent solutions with the respective enzyme and inhibitor combination were prepared, one of them being diluted with buffer in a 1:2 ratio shortly before the reaction was started by adding the substrate. The respective inhibitor concentration was set near the IC50 value. The substrate and cofactor concentrations were kept constant in both reaction mixtures. All measurements were carried out in duplicates against a reference containing DMSO instead of the inhibitor. […] If a reversible inhibitor was present, a higher degree of activity recovery (>>10%) could be observed than what corresponds to the dilution factor due to the partial dissociation of the inhibitor from the enzyme upon dilution. The percentual changes in the enzymatic activity of the undiluted and diluted test solution were compared and evaluated to decide the mechanism of inhibition.

Assay [4] relates to T. brucei. Particulars: read-out: EC50 in vitro against T. brucei; cited from earlier work.
The subject of a further assay is L. major. To be noted: read-out: EC50 against L. major; cited from earlier work.

Turning to `O=C(/C=C/c1ccc(O)c(O)c1/C=C/c1ccc(O)c(O)c1)O[C@H](Cc1ccc(O)c(O)c1)C(=O)O` [Compound 8, salvianolic acid A], the EC50 on LmDHFR was 18.7 µM. The IC50 at TbPTR1 [1] was 85.1 µM; with T. brucei [2], 3.1 µM; at hDHFR it was greater than 50 µM; at TbDHFR, 2.5 µM.

In the case of `C=C(C)[C@H](CC=C(C)C)Cc1c(O)cc(O)c2c1O[C@H](c1ccc(O)cc1O)CC2=O` [Compound 9, sophoraflavanone G], the IC50 on LmDHFR (read-out: IC50 LmDHFR) is 14 µM; on TbPTR1 [1], 31.8 µM; with T. brucei [2], 1.4 µM; on TbDHFR (read-out: IC50 TbDHFR), 9.4 µM. Moreover, on hDHFR (read-out: EC50 hDHFR (footnote a)), the EC50 was determined as 31.6 µM. The inhibition at 50 µM at hDHFR is greater than 50%.

For the molecule `O=C(/C=C/CCc1ccc(O)c(O)c1)CCc1ccc(O)c(O)c1` [Compound 17, dehydrohirsutanone], the IC50 on LmPTR1 was greater than 50 µM; on TbPTR1 [1], 8.3 µM; at hDHFR, 40.7 µM; at TbDHFR (read-out: IC50 TbDHFR) it was 17.7 µM. The “TbPTR1 activity recovered upon 1:2 dilution compared to the reference” value on TbPTR1 [3] was determined as 12.8%. In addition, the figures for the EC50 in the assay with T. brucei [4] and with L. major were 2.5 µM and greater than 100 µM, respectively. In addition, the inhibition at 50 µM at hDHFR was greater than 50%.
